The assay relates to RAW 264.7 cells. The assay is described as follows: In vitro osteoclastogenesis assay (co-culture of RAW 264.7 osteoclast precursor cells with prostate cancer cells, TRAP staining). Type of assay: cell-based, mouse. The method, then: The co-cultures of osteoclast precursor cells (RAW 264.7 cells) and prostate cancer cells were performed in 48-well plate containing 500 μl of α-MEM media supplemented with 10% FBS and were set up in quadruplicates. Osteoclast precursor cells were seeded with prostate cancer cells in an 8:1 ratio (15,000 RAW 264.7 cells and 1,875 prostate cancer cells) per well. Recombinant mouse RANKL (100 ng/ml, provided by Dr. Xu Feng), was added to the assay as the positive control. Additionally, recombinant OPG (1 μg/ml) was added to designated wells to block RANKL-mediated increased osteoclastogenesis. The cells were checked under the microscope daily from day-4 to day-7. Cells were fixed and subjected to tartrate-resistant acid phosphatase (TRAP) staining (Sigma-Aldrich, Inc., St. Louis, Mo.). TRAP^+ multinucleated cells (3 nuclei) in the entire well were counted as mature osteoclasts and the images were taken under light microscopy.

“Also recorded” adds a separate entry of the source.

Take osteoprotegerin [OPG]: for the setting “addition of OPG (1 μg/ml) to co-culture with RAW264.7”, the “formation of mature osteoclasts induced by ARCaPE-RANKL and LNCaP-RANKL cells” value is recorded as “blocked; also recorded: decreased by approximately two-fold”. In addition, the “osteoclastogenesis induced by Neo-transfected control cells” value (addition of OPG to co-culture with RAW264.7) was “very minimal blocking effects”.
